PMC6748986, “Potent modulation of the CepR quorum sensing receptor and virulence in a Burkholderia cepacia complex member using non-native lactone ligands” (Scientific Reports, 2019)
Numbering of substitutions follows the chain as printed. “And” between values parts separate entries of the source, which are not always exact repeats. Equal entries are not always repeated. Where two headings read alike, the source gives them in different places.

What was measured:
CepR [1] = target: T1, CepR (Burkholderia multivorans, UniProt Q93PF7); test: CepR antagonism in B. multivorans cepI::lacZ reporter (Bm-reporter), competition against C8-AHL; type: cell-based; conditions: for Inh% (100-Act%): Table S5, Bm-reporter, screening conc. 100 μM; for Maximal Inhibition (%) / IC50: Bm-reporter, against 5 nM C8-AHL; for IC50: read-out: IC50
T1 sequence (Q93PF7 1-239): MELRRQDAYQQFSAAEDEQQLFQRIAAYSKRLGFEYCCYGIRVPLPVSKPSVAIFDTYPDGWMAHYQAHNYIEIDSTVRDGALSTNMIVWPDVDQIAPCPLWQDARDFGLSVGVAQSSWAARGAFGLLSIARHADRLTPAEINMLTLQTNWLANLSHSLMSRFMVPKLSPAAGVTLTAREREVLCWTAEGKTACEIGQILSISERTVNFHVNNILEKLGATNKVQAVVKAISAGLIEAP
Description: (§1) We next sought to assess if the CepR modulators identified in the Ec-reporter maintained their activities in a member of the Bcc. For these studies, we generated a B. multivorans cepI::lacZ reporter organism (Bm-reporter) using standard allelic exchange methods (see Methods). Along with B. cenocepacia, B. multivorans is one of the most commonly isolated Bcc members[6],[44]. We note that small molecules must contend with a different cellular environment in the native organism relative to E. coli[48]; however, as both CepR and the cepI promoter are highly conserved among Bcc species (Fig. S3), we reasoned that the majority of compounds identified in the Ec-reporter (containing B. cenocepacia versions of the cepI promoter and the cepR gene) would maintain their relative activity profiles in CepR in B. multivorans. […] Similar to the Ec-reporter, CepR binding to the cepI promoter then induces β-galactosidase production, allowing for the quantitation of CepR activity. Using the Bm-reporter organism, we observed robust activity for CepR in response to C8-AHL (EC50 = 0.7 nM, Table 3).
(§2) The B. multivorans cepI::lacZ strain was used to obtain dose-response data for CepR in response to synthetic AHLs. Overnight cultures of B. multivorans cepI::lacZ were grown in LB medium at 37 °C with shaking (225 rpm). Aliquots (200 μL) of a 1:10 dilution of this overnight culture were plated into 96-well plates containing varying concentrations of compound, and then grown for 4 h at 37 °C with shaking (225 rpm). β-galactosidase production was measured as described above for E. coli, with the following changes: permeabilized cells were incubated at 25 °C with substrate CPRG for ~10 min until positive control wells developed a deep red color. For agonism assays, synthetic compound was screened alongside and compared to the native ligand, C8-AHL (100 μM). For antagonism assays, the concentration of native ligand utilized was 5 nM (approximately equal to twice its EC50 value).

CepR [2] = target: T2, CepR (Burkholderia cenocepacia, UniProt B4EMD0); test: CepR agonism in E. coli β-galactosidase reporter (Ec-reporter) JLD271 [pJN105-cepR + pSC11-cepI]; type: cell-based, B. cenocepacia; conditions: for Maximal Activation (%): activity for 100 μM C8-AHL set to 100%, error ±10%
T2 sequence (B4EMD0 1-239): T1 sequence (Q93PF7 1-239) with R5W, S51A, H69Q, S84N, Q95R, A97D
In short: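 E. coli JLD271 (ΔsdiA) carrying arabinose-inducible CepR (27 mM L-arabinose) and cepI-lacZ fusion, grown 4 h with compound; β-galactosidase measured by CPRG cleavage at 37 °C (~30 min), normalized to OD600. Agonism compared with C8-AHL at 100 μM; screen at 100 μM or solubility limit, then dose-response; ≥3 trials.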

CepR [3] = target: T2, CepR; test: CepR antagonism in E. coli β-galactosidase reporter (Ec-reporter), competition against C8-AHL; type: cell-based, B. cenocepacia; conditions: for Inh% (100-Act%): Table S3, Ec-reporter; for IC50 / Maximal Inhibition (%): Ec-reporter
In short: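 CepR antagonism was measured in E. coli JLD271 (∆sdiA) carrying pJN105-cepR, which expresses B. cenocepacia CepR from an arabinose-inducible pBAD promoter, and pSC11-cepI, which fuses lacZ to the cepI promoter. Induced cells were grown 4 h with compound and 10 nM C8-AHL. β-Galactosidase activity was then read by CPRG cleavage at 37 °C after Z Buffer permeabilization.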

CepR [4] = target: T1, CepR; test: CepR agonism in B. multivorans cepI::lacZ reporter (Bm-reporter); type: cell-based; conditions: for EC50: read-out: EC50; for Maximal Activation (%): activity for 100 μM C8-AHL set to 100%, error ±10%
Description: as §1, §2

[5] = Table S2, Ec-reporter, screening conc. 100 μM
[6] = screening conc. 100 μM, against 10 nM C8-AHL
[7] = Bm-reporter, agonism dose-response
[8] = Table S4, Bm-reporter, screening conc. 100 μM
[9] = Ec-reporter, agonism dose-response

| SMILES | Act% (CepR [2]; [5]) | Inh% (100-Act%) (CepR [3]; [6]) | Maximal Activation (%) (CepR [2]; Ec-reporter) | EC50 (CepR [4]; [7]) | Maximal Activation (%) (CepR [4]; Bm-reporter) | Act% (CepR [4]; [8]) | EC50 (CepR [2]; [9]) | other results |
| --- | --- | --- | --- | --- | --- | --- | --- | --- |
| O=C(Cc1ccc(Br)cc1)N[C@H]1CCOC1=O [Control 7, reference compound] | 0.2% | 89% |  |  |  |  |  | Inh% (100-Act%) (CepR [1]): 85% |
| CCCC(=O)N[C@H]1CCOC1=O [Compound C4-AHL, butanoyl L-homoserine lactone, reference compound] | 23% |  | 23% |  |  |  |  | Maximal Inhibition (%) (CepR [1]): 76%; IC50 (CepR [1]): 250 nM; IC50 (CepR [3]; against 10 nM C8-AHL): 20 µM; Maximal Inhibition (%) (CepR [3]; against 10 nM C8-AHL): 58% |
| O=C(CCc1cccc(Br)c1)N[C@H]1CCOC1=O [Compound E31] | 89% | -20% | 89% | ≥ 3400 nM | 78% | 78% | 4.4 nM |  |
| O=C(Cc1ccc(Cl)c(Cl)c1)N[C@H]1CCOC1=O [Compound E11] | 1.9% | 59% |  |  |  |  |  | Inh% (100-Act%) (CepR [1]): 94% |
| O=C(CCc1ccc2c(c1)OCO2)N[C@H]1CCOC1=O [Compound E39] | 103% | -40% | 100% |  |  | 84% | 1.4 nM | EC50 (CepR [4]; Table S4, Bm-reporter): 9.1 nM |
| CCCOc1ccc(C(=O)N[C@H]2CCOC2=O)cc1 [Compound R2] | 98% | -10% |  |  |  | 92% |  | EC50 (CepR [2]; Table S2, Ec-reporter): 38 nM |
| O=C(CCc1cccc(C(F)(F)F)c1)N[C@H]1CCOC1=O [Compound E36] | 92% | -10% | 92% | ≥ 3900 nM | 100% | 103% | 26 nM |  |
| CCCCCC(=O)CC(=O)N[C@H]1CCOC1=O [3’O-C8-AHL, reference compound] | 86% | 3.0% | 86% | ≥ 3500 nM | 72% | 72% | 1200 nM | IC50 (CepR [3]; against 10 nM C8-AHL): 16 µM; Maximal Inhibition (%) (CepR [3]; against 10 nM C8-AHL): 71% |
| CCCC(=O)CC(=O)N[C@H]1CCOC1=O [3’O-C6-AHL, reference compound] |  |  |  |  |  |  |  | Maximal Inhibition (%) (CepR [1]): 85%; IC50 (CepR [1]): 800 nM |
| O=C(CCc1cccc(I)c1)N[C@H]1CCOC1=O [Compound E33] | 92% | -20% | 92% | 0.15 nM | 94% | 94% | 0.95 nM | EC50 (nM) (CepR [2]; [9]): sub-nanomolar |
| O=C(CCc1ccc(F)cc1)N[C@H]1CCOC1=O [Compound E29] | 92% | -10% | 92% |  |  | 94% | 2.3 nM |  |
| CCCCOc1ccc(C(=O)N[C@H]2CCOC2=O)cc1 [Compound R4] |  |  |  |  |  |  |  | Act% (CepR [4]; Table S4, Bm-reporter, screening conc. 25 μM): 58%; EC50 (CepR [2]; Table S2, Ec-reporter): 86 nM; Act% (CepR [2]; Table S2, Ec-reporter, screening conc. 25 μM): 84%; Inh% (100-Act%) (CepR [3]; screening conc. 25 μM): -30% |
| Cc1ccc(CCC(=O)N[C@H]2CCOC2=O)cc1 [Compound E26] | 96% | -10% | 96% |  | 96% | 96% | 5.9 nM | EC50 (CepR [4]; Table S4, Bm-reporter): 0.77 nM |
| O=C(CCC1CCCCC1)N[C@H]1CCOC1=O [Compound B11] | 87% | -20% | 87% |  |  | 51% | 130 nM |  |
| CSc1ccc(CCC(=O)N[C@H]2CCOC2=O)cc1 [Compound E34] | 104% | -20% | 104% and 100% | 0.94 nM | 110% | 110% | 0.07 nM and 0.071 nM | Fold more potent than C8-AHL (CepR [2]; Ec-reporter, EC50 comparison): ~100 fold |
| CC(C)Oc1ccc(C(=O)N[C@H]2CCOC2=O)cc1 [Compound R3] | 92% | -10% |  |  |  | 40% |  | EC50 (CepR [2]; Table S2, Ec-reporter): 94 nM |
| COc1ccc(CCC(=O)N[C@H]2CCOC2=O)cc1 [Compound E28] | 92% | -30% | 92% |  |  | 90% | 3.8 nM | EC50 (CepR [4]; Table S4, Bm-reporter): 52 nM |
| O=C(CCCOc1ccc(Cl)cc1)NC1CCOC1=O (stereo not drawn) [CL, reference compound] | 110% | -20% |  | 940 nM | 80% | 80% |  | EC50 (CepR [2]; Table S2, Ec-reporter): 12 nM |
| O=C(CCc1ccc(Br)cc1)N[C@H]1CCOC1=O [Compound B7] | 97% | -50% | 97% | 0.24 nM | 82% | 82% | 0.29 nM | EC50 (nM) (CepR [2]; [9]): sub-nanomolar |
| CCCCCCCCCC(=O)CC(=O)N[C@H]1CCOC1=O [3’O-C12-AHL, reference compound] | 98% | -40% |  |  |  | 80% |  |  |
| O=C(CCc1ccc(Cl)cc1)N[C@H]1CCOC1=O [Compound E30] | 85% | -10% | 85% | 0.75 nM | 84% | 84% | 4.4 nM |  |
| O=C(Cc1ccc(SC(F)(F)F)cc1)N[C@H]1CCOC1=O [Compound E8] | 14% | 0.0% |  |  |  |  |  |  |
